The values that follow come from patent publication US20170157301A1, “LEOLIGIN DERIVATIVES AS SMOOTH MUSCLE CELL PROLIFERATION INHIBITORS” (TECHNISCHE UNIVERSITAET WIEN, priority 2014, published 2017).

The subject of the test is SMCs in relation to ECs. Briefly: activity ratio: efficiency towards SMCs / efficiency towards ECs. The format is cell-based. The settings on record: activity ratio class; order in Table 1 follows the calculated values. The protocol: For determination of vascular SMC proliferation, 0.5×10^4 viable rat aortic SMCs per well were seeded in SMC growth medium (DMEM/F12 medium with 20% serum, 30 μg/mL Gentamicin and 15 ng/mL Amphotericin) in 96-well plates. 24 h later, the medium was removed, the cells were washed once with SMC starvation medium (DMEM/F12 medium with 0.1% serum, 0.2% BSA, 30 μg/mL Gentamicin and 15 ng/mL Amphotericin) and incubated in starvation medium for further 24 h.
The quiescent cells were then pretreated for 30 min with the test compounds and induced to proliferate with 20 ng/mL platelet-derived growth factor (PDGF). Unstimulated cells were utilized for normalization and estimation of the basal level of proliferation. The final concentration of the solvent vehicle, dimethyl sulfoxide (DMSO), was the same (0.1%) in all wells. 48 h later, the SMC proliferation was quantified by resazurin dye conversion for 2 h as previously described (H. Joa et al., J. Nat. Prod. 74(6), 1513-6 (2011)).
For determination of endothelial cell proliferation, 0.5×10^4 HUVECtert immortalized human umbilical vein endothelial cells (H. B. Schiller et al., Mol. Biol. Cell. 20(3), 745-756 (2009)) were seeded in 96-well plates for 24 h in HUVEC Complete Medium (EBM™ growth medium supplemented with 10% fetal bovine serum, EBM™ SingleQuots (Lonza, Basel, Switzerland), 100 U/mL benzylpenicillin, 100 μg/mL streptomycin, and 1% amphotericin). Afterwards, the medium was exchanged with fresh HUVEC Complete Medium and cells were treated with the indicated compounds for 48 h. After the end of the incubation period, the medium was removed, the cells were washed once with 200 μL/well PBS, and treated with 150 μL HUVEC Complete Medium containing 10 μg/mL resazurin. 2 h later, the fluorescence was measured at a wavelength of 580 nm, with excitation wavelength 535 nm in a 96-well plate reader (Tecan GENios Pro; Tecan Group Ltd., Mannedorf, Switzerland).
In every case, the percentage of viable cells was subtracted from 1, in order to obtain a measure of efficiency of the test compounds towards each particular type of cells, and subsequently, the efficiency quotient towards SMCs and ECs was calculated and taken as the “activity ratio” and thus as a measure of selective efficiency of each test compound towards SMCs in relation to ECs. For example, the synthetic Leoligin with the bio ID 2418 prepared in Comparative Example 27 as compound 10-22 gave the following results:
Due to the usual fluctuations in determining surviving cells, which amount to approximately ±10%, and due to the relatively strong resulting fluctuations in calculating quotients—especially if the inhibitory effect of said novel compounds towards ECs is very poor—said threshold value of 1.50 for the activity ratio, as already mentioned above, was introduced.
In the following, a table listing every compound prepared in examples and comparative Examples for which an activity ratio (a.r.) of >1.0 was determined, is given.

Structures are written as SMILES.

Take `C/C=C(/C)C(=O)OC[C@H]1[C@@H](Cc2ccc(OC)c(OC)c2)CO[C@@H]1c1ccc(F)cc1` [Comparative Example 26, (Z)-((2S,3R,4R)-4-(3,4-dimethoxybenzyl)-2-(4-fluorophenyl)tetrahydrofuran-3-yl)methyl 2-methylbut-2-enoate]: the a.r. code entry was “V (1.0 < a.r. < 1.50)”.

Turning to `COc1ccc(C[C@H]2CO[C@H](c3ccc(OC)c(OC)c3)[C@H]2COC(=O)CC23CC4CC(CC(C4)C2)C3)cc1OC` [Example 27, ((2S,3R,4R)-4-(3,4-dimethoxybenzyl)-2-(3,4-dimethoxyphenyl)tetrahydrofuran-3-yl) methyl 2-(adamantan-1-yl)acetate], the a.r. code entry was “AA (a.r. ≧ 2.0)”.

On to `C/C=C/C(=O)OC[C@H]1[C@@H](Cc2ccc(OC)c(OC)c2)CO[C@@H]1c1ccc(OC)c(OC)c1` [Example 23, (E)-((2S,3R,4R)-4-(3,4-dimethoxybenzyl)-2-(3,4-dimethoxyphenyl)tetrahydro-furan-3-yl)methyl but-2-enoate], for which the a.r. code entry was “AA (a.r. ≧ 2.0)”.

As for `COc1ccc([C@H]2OC[C@H](Cc3cccc4ccccc34)[C@@H]2CO)cc1OC` [Example 3, ((2S,3R,4R)-2-(3,4-dimethoxyphenyl)-4-(naphthalen-1-ylmethyl)tetrahydro-furan-3-yl)methanol], the a.r. code entry is recorded as “AA (a.r. ≧ 2.0)”.

With `CCCCc1ccc(C[C@H]2CO[C@H](c3ccc(OC)c(OC)c3)[C@H]2CO)cc1` [Example 5, ((2S,3R,4R)-4-(4-butylbenzyl)-2-(3,4-dimethoxyphenyl)tetrahydrofuran-3-yl)-methanol], the a.r. code entry is “AA (a.r. ≧ 2.0)”.

Turning to `COc1cc([C@H]2OC[C@H](Cc3ccc(C(F)(F)F)cc3)[C@@H]2CO)cc(OC)c1OC` [Example 8, ((2S,3R,4R)-4-(4-(trifluoromethyl)benzyl)-2-(3,4,5-trimethoxyphenyl)tetrahydro-furan-3-yl)methanol], the a.r. code entry is given as “AAA (a.r. ≧ 5.0)”.

For the molecule `C/C=C(/C)C(=O)OC[C@H]1[C@@H](Cc2ccc(C)cc2)CO[C@@H]1c1cc(OC)c(OC)c(OC)c1` [Comparative Example 34, (Z)-((2S,3R,4R)-4-(4-methylbenzyl)-2-(3,4,5-trimethoxyphenyl)tetrahydrofuran-3-yl)methyl 2-methylbut-2-enoate], the a.r. code result was “V (1.0 < a.r. < 1.50)”.

`COc1ccc(C[C@H]2CO[C@H](c3ccc(OC)c(OC)c3)[C@H]2COC(=O)C(C)(C)C)cc1OC` [Comparative Example 45, ((2S,3R,4R)-4-(3,4-dimethoxybenzyl)-2-(3,4-dimethoxyphenyl)tetrahydrofuran-3-yl)methyl pivalate]: the a.r. code result was “V (1.0 < a.r. < 1.50)”.

For the molecule `CCC(CC)C(=O)OC[C@H]1[C@@H](Cc2ccc(OC)c(OC)c2)CO[C@@H]1c1ccc(F)cc1` [Example 31, ((2S,3R,4R)-4-(3,4-dimethoxybenzyl)-2-(4-fluorophenyl)tetrahydrofuran-3-yl)-methyl 2-ethylbutanoate], the a.r. code result was “A (a.r. ≧ 1.50)”.

Regarding `COc1ccc(C[C@H]2CO[C@H](c3cc(OC)c(OC)c(OC)c3)[C@H]2COC(=O)C2CC2)cc1OC` [Example 41, ((2S,3R,4R)-4-(3,4-dimethoxybenzyl)-2-(3,4,5-trimethoxyphenyl)tetrahydro-furan-3-yl)methyl cyclopropanecarboxylate], the a.r. code entry was “AA (a.r. ≧ 2.0)”.

As to `C/C=C(/C)C(=O)OC[C@H]1[C@@H](Cc2ccc(C(F)(F)F)cc2)CO[C@@H]1c1ccc(F)cc1` [Example 15, (Z)-((2S,3R,4R)-2-(4-fluorophenyl)-4-(4-(trifluoromethyl)benzyl)tetrahydro-furan-3-yl)methyl 2-methylbut-2-enoate], the a.r. code entry is “AAA (a.r. ≧ 5.0)”.

Take `C/C=C(/C)C(=O)OC[C@H]1[C@@H](Cc2ccc(C(C)(C)C)cc2)CO[C@@H]1c1ccc(OC)c(OC)c1` [Example 10, (Z)-((2S,3R,4R)-4-(4-(tert-butyl)benzyl)-2-(3,4-dimethoxyphenyl)tetrahydro-furan-3-yl)methyl 2-methylbut-2-enoate]: the a.r. code entry was “AA (a.r. ≧ 2.0)”.

As for `COc1ccc(C[C@H]2CO[C@H](c3cc(OC)c(OC)c(OC)c3)[C@H]2COC(=O)C2CCCCC2)cc1OC` [Example 39, ((2S,3R,4R)-4-(3,4-dimethoxybenzyl)-2-(3,4,5-trimethoxyphenyl)tetrahydro-furan-3-yl)methyl cyclohexanecarboxylate], the a.r. code entry is on record as “A (a.r. ≧ 1.50)”.

As to `COc1ccc(C[C@H]2CO[C@H](c3cc(OC)c(OC)c(OC)c3)[C@H]2COC(=O)c2ccccc2)cc1OC` [Example 36, ((2S,3R,4R)-4-(3,4-dimethoxybenzyl)-2-(3,4,5-trimethoxyphenyl)tetrahydro-furan-3-yl)methyl benzoate], the a.r. code result is given as “A (a.r. ≧ 1.50)”.

For the molecule `C/C=C(/C)C(=O)OC[C@H]1[C@@H](Cc2ccc(C(C)(C)C)cc2)CO[C@@H]1c1ccc(F)cc1` [Example 18, (Z)-((2S,3R,4R)-4-(4-(tert-butyl)benzyl)-2-(4-fluorophenyl)tetrahydrofuran-3-yl)methyl 2-methylbut-2-enoate], the a.r. code result is recorded as “AAA (a.r. ≧ 5.0)”.

On to `COc1ccc(C[C@H]2CO[C@H](c3ccc(OC)c(OC)c3)[C@H]2COC(=O)C2CCCC2)cc1OC` [Comparative Example 36, ((2S,3R,4R)-4-(3,4-dimethoxybenzyl)-2-(3,4-dimethoxyphenyl)tetrahydrofuran-3-yl)methyl cyclopentanecarboxylate], for which the a.r. code result is given as “V (1.0 < a.r. < 1.50)”.

Regarding `C/C=C(/C)C(=O)OC[C@H]1[C@@H](Cc2ccc(OC)c(OC)c2)CO[C@@H]1c1ccc(OC)cc1` [Comparative Example 28, (Z)-((2S,3R,4R)-4-(3,4-dimethoxybenzyl)-2-(4-methoxyphenyl)tetrahydrofuran-3-yl)methyl 2-methylbut-2-enoate], the a.r. code result was “V (1.0 < a.r. < 1.50)”.

Consider `COc1ccc([C@H]2OC[C@H](Cc3ccc(C)cc3)[C@@H]2CO)cc1OC` [Example 2, ((2S,3R,4R)-2-(3,4-dimethoxyphenyl)-4-(4-methylbenzyl)tetrahydrofuran-3-yl)-methanol], for which the a.r. code entry is recorded as “AAA (a.r. ≧ 5.0)”.

In the case of `CCCC(=O)OC[C@H]1[C@@H](Cc2ccc(OC)c(OC)c2)CO[C@@H]1c1cc(OC)c(OC)c(OC)c1` [Example 37, ((2S,3R,4R)-4-(3,4-dimethoxybenzyl)-2-(3,4,5-trimethoxyphenyl)tetrahydro-furan-3-yl)methyl butyrate], the a.r. code result is “AAA (a.r. ≧ 5.0)”.

For the molecule `C/C=C(/C)C(=O)OC[C@H]1[C@@H](Cc2ccc(OC)cc2)CO[C@@H]1c1ccccc1` [Comparative Example 29, (Z)-((2S,3R,4R)-4-(4-methoxybenzyl)-2-phenyltetrahydrofuran-3-yl)methyl 2-methylbut-2-enoate], the a.r. code entry is reported as “V (1.0 < a.r. < 1.50)”.

With `C/C=C(/C)C(=O)OC[C@H]1[C@@H](Cc2ccc(C(C)=O)cc2)CO[C@@H]1c1cc(OC)c(OC)c(OC)c1` [Example 21, (Z)-((2S,3R,4R)-4-(4-acetylbenzyl)-2-(3,4,5-trimethoxyphenyl)tetrahydrofuran-3-yl)methyl 2-methylbut-2-enoate], the a.r. code result is recorded as “AA (a.r. ≧ 2.0)”.

As for `COc1ccc(C[C@H]2CO[C@H](c3cc(OC)c(OC)c(OC)c3)[C@H]2COC(=O)C2=CCCCC2)cc1OC` [Comparative Example 46, ((2S,3R,4R)-4-(3,4-dimethoxybenzyl)-2-(3,4,5-trimethoxyphenyl)tetrahydro-furan-3-yl)methyl cyclohex-1-enecarboxylate], the a.r. code result is listed as “V (1.0 < a.r. < 1.50)”.
